Laboratory results taken from PMC8425678, “1-Oxo-3,4-dihydroisoquinoline-4-carboxamides as novel druglike inhibitors of poly(ADP-ribose) polymerase (PARP) with favourable ADME characteristics” (Journal of Enzyme Inhibition and Medicinal Chemistry, 2021).
“Also recorded” adds a separate entry of the source.

Columns and labels:
PARP1 = molecular target: T1, PARP1 (Homo sapiens, UniProt P09874); assay: PARP1 colorimetric activity assay kit (BPS Bioscience); assay type: biochemical; conditions: for inhibition at 1 µM: read-out: PARP1 % inhibition at 1 µM, 1 µM compound, triplicate (n = 3); for IC50: dose-response, mean (n = 3) ± SD, r^2 in brackets; for PARP1 inhibitory potency in words: compared with 3l
T1 construct: purchased BPS Bioscience (San Diego, CA)
T1 sequence (P09874 whole entry): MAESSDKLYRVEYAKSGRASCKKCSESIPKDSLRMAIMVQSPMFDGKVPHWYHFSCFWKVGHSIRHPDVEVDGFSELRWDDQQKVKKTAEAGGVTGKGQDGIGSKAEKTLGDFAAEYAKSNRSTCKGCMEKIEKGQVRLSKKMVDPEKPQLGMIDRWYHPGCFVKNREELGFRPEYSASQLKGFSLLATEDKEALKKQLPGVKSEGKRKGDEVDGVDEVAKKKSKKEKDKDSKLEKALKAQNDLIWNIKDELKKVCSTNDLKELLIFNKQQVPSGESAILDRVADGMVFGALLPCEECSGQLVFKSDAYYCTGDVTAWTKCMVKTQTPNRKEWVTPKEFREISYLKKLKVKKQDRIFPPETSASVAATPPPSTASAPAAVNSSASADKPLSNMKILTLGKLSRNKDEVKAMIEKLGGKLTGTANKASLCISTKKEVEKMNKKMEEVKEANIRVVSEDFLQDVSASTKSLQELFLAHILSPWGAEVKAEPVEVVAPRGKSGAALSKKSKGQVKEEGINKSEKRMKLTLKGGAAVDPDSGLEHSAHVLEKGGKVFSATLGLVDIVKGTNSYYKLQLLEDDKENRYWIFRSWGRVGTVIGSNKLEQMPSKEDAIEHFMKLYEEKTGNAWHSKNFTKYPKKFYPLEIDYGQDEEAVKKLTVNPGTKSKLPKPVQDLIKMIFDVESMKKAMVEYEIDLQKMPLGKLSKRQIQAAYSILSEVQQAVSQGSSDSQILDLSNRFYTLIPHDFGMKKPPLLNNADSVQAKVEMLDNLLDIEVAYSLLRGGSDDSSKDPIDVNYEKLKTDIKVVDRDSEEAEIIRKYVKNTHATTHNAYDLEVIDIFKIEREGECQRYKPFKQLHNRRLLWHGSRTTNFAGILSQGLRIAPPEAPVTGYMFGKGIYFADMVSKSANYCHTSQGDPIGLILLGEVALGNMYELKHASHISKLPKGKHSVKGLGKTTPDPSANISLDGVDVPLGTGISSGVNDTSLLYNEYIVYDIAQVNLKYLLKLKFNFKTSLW
Method: (§1) The thirty-six 1-oxo-3,4-dihydroisoquinoline-4-carboxamides 3a-aj and 1-oxoisoquinoline-4-carboxamide 11 were tested for inhibitory activity towards PARP1 and PARP2 using the commercially available colorimetric activity assay kit from BPS Bioscience (San Diego, CA) in full accordance of the supplier’s method description[13]^,[14]. The initial screening was performed against PARP1 at 1 µM concentration of each compound, in triplicate (n = 3) measurements.

PARP2 = molecular target: T2, PARP2 (Homo sapiens, UniProt Q9UGN5); assay: PARP2 colorimetric activity assay kit (BPS Bioscience); assay type: biochemical; conditions: for IC50: dose-response, mean (n = 3) ± SD, r^2 in brackets
T2 construct: purchased BPS Bioscience (San Diego, CA)
T2 sequence (Q9UGN5 whole entry): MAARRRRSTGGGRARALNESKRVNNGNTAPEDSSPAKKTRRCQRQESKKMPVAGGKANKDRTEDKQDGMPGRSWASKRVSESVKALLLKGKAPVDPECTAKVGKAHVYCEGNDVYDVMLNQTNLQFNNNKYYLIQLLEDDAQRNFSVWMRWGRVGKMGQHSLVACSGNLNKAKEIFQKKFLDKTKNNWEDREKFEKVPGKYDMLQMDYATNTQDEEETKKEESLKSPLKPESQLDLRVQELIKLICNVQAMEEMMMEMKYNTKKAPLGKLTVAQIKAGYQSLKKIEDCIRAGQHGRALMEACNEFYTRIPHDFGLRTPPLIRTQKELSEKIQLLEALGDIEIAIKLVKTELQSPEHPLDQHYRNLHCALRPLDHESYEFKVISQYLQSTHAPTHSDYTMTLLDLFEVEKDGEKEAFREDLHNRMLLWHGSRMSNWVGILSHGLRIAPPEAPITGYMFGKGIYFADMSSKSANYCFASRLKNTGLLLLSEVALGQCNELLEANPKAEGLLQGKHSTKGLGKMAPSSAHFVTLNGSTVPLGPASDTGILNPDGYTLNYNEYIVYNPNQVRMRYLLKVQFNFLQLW
Method: as §1

| SMILES | inhibition at 1 µM (PARP1) [%] | melting point [°C] | also measured |
| --- | --- | --- | --- |
| COc1ccccc1N1CCN(C(=O)C2CNC(=O)c3ccccc32)CC1 (stereo not shown) [Compound 3q, 4–(4-(2-Methoxyphenyl)piperazine-1-carbonyl)-3,4-dihydroisoquinolin-1(2H)-one] | 32.9 ± 2.4 | 155 to 156 | – |
| O=C1NCC(C(=O)N2CCC3(CCCCO3)CC2)c2ccccc21 (stereo not shown) [Compound 3r, 4–(1-Oxa-9-azaspiro[5.5]undecane-9-carbonyl)-3,4-dihydroisoquinolin-1(2H)-one] | 28.5 ± 7.1 | – | – |
| O=C1NCC(C(=O)NCc2ccc(F)cc2)c2ccccc21 (stereo not shown) [Compound 3p, N-(4-Fluorobenzyl)-1-oxo-1,2,3,4-tetrahydroisoquinoline-4-carboxamide] | 27.2 ± 4.3 | 188 to 189 | – |
| Cc1ccc(S(=O)(=O)N2CCN(C(=O)C3CNC(=O)c4ccccc43)CC2)cc1 (stereo not shown) [Compound 3i, 4–(4-Tosylpiperazine-1-carbonyl)-3,4-dihydroisoquinolin-1(2H)-one] | 28.9 ± 5.5 | 228 to 229 | – |
| CCN1CCN(C(=O)C2CNC(=O)c3ccccc32)CC1 (stereo not shown) [Compound 3f, 4–(4-ethylpiperazine-1-carbonyl)-3,4-dihydroisoquinolin-1(2H)-one] | 26.2 ± 9.7 | – | – |
| CC1CCN(C(=O)C2CNC(=O)c3ccccc32)CC1 (stereo not shown) [Compound 3b, 4–(4-Methylpiperidine-1-carbonyl)-3,4-dihydroisoquinolin-1(2H)-one] | 42.7 ± 0.9 | – | – |
| O=C1NCC(C(=O)NCc2ccc(Cl)cc2)c2ccccc21 (stereo not shown) [Compound 3d, N-(4-Chlorobenzyl)-1-oxo-1,2,3,4-tetrahydroisoquinoline-4-carboxamide] | 7.4 ± 8.7 | – | – |
| O=C1NCC(C(=O)N2CCSCC2)c2ccccc21 (stereo not shown) [Compound 3o, 4-(Thiomorpholine-4-carbonyl)-3,4-dihydroisoquinolin-1(2H)-one] | 47.4 ± 3.7 | 171 to 172 | – |
| CCOC(=O)N1CCN(C(=O)C2CNC(=O)c3ccccc32)CC1 (stereo not shown) [Compound 3a, Ethyl 4–(1-oxo-1,2,3,4-tetrahydroisoquinoline-4-carbonyl)piperazine-1-carboxylate] | 26.3 ± 7.7 | – | – |
| O=C1NCC(C(=O)N2CCOCC2)c2ccccc21 (stereo not shown) [Compound 3j, 4-(Morpholine-4-carbonyl)-3,4-dihydroisoquinolin-1(2H)-one] | 57.6 ± 5.8 | – | – |
| O=C1NCC(C(=O)N2CCN(C3CCCCCC3)CC2)c2ccccc21 (stereo not shown) [Compound 3z, 4–(4-Cycloheptylpiperazine-1-carbonyl)-3,4-dihydroisoquinolin-1(2H)-one] | 45.2 ± 7.4 | 207 to 208 | – |
| O=C(c1c[nH]c(=O)c2ccccc12)N1CCC(N2CCCCC2)CC1 [Compound 11, 4-([1,4'-Bipiperidine]-1'-carbonyl)isoquinolin-1(2H)-one] | 49.1 ± 2.6 | 171 to 174 | fold lower potency compared to 3l or 3aa (PARP1; 3,4-dehydro analog vs 3l / 3aa): approximately 10 fold |
| CN(Cc1ccccc1)C(=O)C1CNC(=O)c2ccccc21 (stereo not shown) [Compound 3c, N-Benzyl-N-methyl-1-oxo-1,2,3,4-tetrahydroisoquinoline-4-carboxamide] | 18.6 ± 13.2 | 148 to 149 | – |
| CCOC(=O)C1CCN(C(=O)C2CNC(=O)c3ccccc32)CC1 (stereo not shown) [Compound 3g, Ethyl 1–(1-oxo-1,2,3,4-tetrahydroisoquinoline-4-carbonyl)piperidine-4-carboxylate] | 47.6 ± 4.1 | 120 to 121 | – |
| O=C1NCC(C(=O)N2CCCCCC2)c2ccccc21 (stereo not shown) [Compound 3n, 4-(Azepane-1-carbonyl)-3,4-dihydroisoquinolin-1(2H)-one] | 35.4 ± 5.1 | – | – |
| O=C1NCC(C(=O)N2CCC(N3CCC(F)(F)CC3)CC2)c2ccc(F)cc21 (stereo not shown) [Compound 3ah, 4–(4,4-Difluoro-[1,4'-bipiperidine]-1'-carbonyl)-7-fluoro-3,4-dihydroisoquinolin-1(2H)-one] | 81.9 ± 1.8 | – | SI, selectivity index (PARP2 over PARP1) (PARP2): 4.46; IC50 (PARP2): 0.0831 ± 0.0069 µM; IC50 (PARP1): 0.371 ± 0.042 µM |
| CN1CCN(C(=O)C2CNC(=O)c3ccccc32)CC1 (stereo not shown) [Compound 3h, 4–(4-Methylpiperazine-1-carbonyl)-3,4-dihydroisoquinolin-1(2H)-one] | 27.3 ± 6 | 163 to 164 | – |

More lines, main results first:

| inhibition at 1 µM (PARP1) [%] | melting point [°C] | SMILES | also measured |
| --- | --- | --- | --- |
| 31.2 ± 3.4 | – | O=C1NCC(C(=O)N2CCCC2)c2ccccc21 (stereo not shown) [Compound 3m, 4-(Pyrrolidine-1-carbonyl)-3,4-dihydroisoquinolin-1(2H)-one] | – |
| 44.6 ± 2.9 | 177 to 178 | O=C1NCC(C(=O)N2CCN(C3CCCC3)CC2)c2ccccc21 (stereo not shown) [Compound 3x, 4–(4-Cyclopentylpiperazine-1-carbonyl)-3,4-dihydroisoquinolin-1(2H)-one] | – |
| 93.7 ± 0.8 | – | O=C1NCC(C(=O)N2CCC(N3CCC(F)CC3)CC2)c2ccc(F)cc21 (stereo not shown) [Compound 3ai, 7-Fluoro-4–(4-fluoro-[1,4'-bipiperidine]-1'-carbonyl)-3,4-dihydroisoquinolin-1(2H)-one] | SI, selectivity index (PARP2 over PARP1) (PARP2): 3.52; IC50 (PARP2): 0.042 ± 0.0023 µM; IC50 (PARP1): 0.148 ± 0.017 µM |
| 43.3 ± 5.9 | – | O=C1NCC(C(=O)N2CCN(Cc3ccc(F)cc3)CC2)c2ccccc21 (stereo not shown) [Compound 3t, 4–(4–(4-Fluorobenzyl)piperazine-1-carbonyl)-3,4-dihydroisoquinolin-1(2H)-one] | – |
| 54.5 ± 4.6 | 197 to 198 | O=C1NCC(C(=O)N2CCN(C3CCCCC3)CC2)c2ccccc21 (stereo not shown) [Compound 3y, 4–(4-Cyclohexylpiperazine-1-carbonyl)-3,4-dihydroisoquinolin-1(2H)-one] | PARP1 inhibitory potency in words (PARP1): significantly less potent; PARP1 inhibitory potency in words (PARP1; listed as 3 y): inactive |
| 33.2 ± 4.8 | – | O=C1NCC(C(=O)N2CCC(N3CCOCC3)CC2)c2ccccc21 (stereo not shown) [Compound 3v, 4–(4-Morpholinopiperidine-1-carbonyl)-3,4-dihydroisoquinolin-1(2H)-one] | PARP1 inhibitory potency in words (PARP1): significantly less potent; also recorded: inactive |
| 31.9 ± 2 | – | O=C1NCC(C(=O)N2CCN(Cc3ccccc3F)CC2)c2ccccc21 (stereo not shown) [Compound 3u, 4–(4-(2-Fluorobenzyl)piperazine-1-carbonyl)-3,4-dihydroisoquinolin-1(2H)-one] | – |
| 56 ± 7.5 | 222 to 223 | O=C1NCC(C(=O)N2CCc3ccccc3C2)c2ccccc21 (stereo not shown) [Compound 3e, 4–(1,2,3,4-Tetrahydroisoquinoline-2-carbonyl)-3,4-dihydroisoquinolin-1(2H)-one] | – |
| 12.5 ± 8.5 | 235 to 236 | O=C1NCC(C(=O)NCc2ccc(N3CCCCC3)cc2)c2ccccc21 (stereo not shown) [Compound 3s, 1-oxo-N-(4-(piperidin-1-yl)benzyl)-1,2,3,4-tetrahydroisoquinoline-4-carboxamide] | – |
| 66.9 ± 1.5 | – | O=C1NCC(C(=O)N2CCNCC2)c2ccccc21 (stereo not shown) [Compound 3w, 4-(Piperazine-1-carbonyl)-3,4-dihydroisoquinolin-1(2H)-one] | – |
| 45.1 ± 1.7 | 191 to 192 | O=C1NCC(C(=O)N2CCC(Cc3ccccc3)CC2)c2ccccc21 (stereo not shown) [Compound 3k, 4–(4-Benzylpiperidine-1-carbonyl)-3,4-dihydroisoquinolin-1(2H)-one] | – |
